The values below come from US7186703B2, “Derivatives of branched-chain lipophilic molecules and uses thereof” (D-Pharm Ltd., priority 2000, dated 2007).

Several values for one entry are separate records, joined by “and”; a condition that tells them apart may be missing. Identical values can stand only once. Like-named read-outs stand apart in the source and are kept apart here.

Series [1] concerns blood brain barrier (BBB). Nature of the series: BBB permeability to EB-albumin and Fluorescein in normal rat brains. The format is in vivo. As to conditions: compounds at EC50 (Mannitol 25%); for Ratio F-Na/EB (mean of individual ratios): control 9.5 ± 1.6; for % EB/g brain: control 0.04 ± 0.01; for Brain fluorescein uptake (% of serum F-Na level): control 0.3 ± 0.08. Put shortly: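 In normal rats, Evans blue–albumin (70 kD) and fluorescein sodium (376 D) were infused into the external carotid artery over 30 s, with test compounds at their EC50 concentrations or vehicle. EB reported as percent of total per gram brain; fluorescein as percent of serum level.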

Series [2] is classed as in vivo. The conditions noted are these: rats, sodium salt; for LC (minimal concentration that caused death): i.a., viability monitored 24 hours. As for the experimental part: DP-BFA molecules were evaluated for safety and toxicity. Increasing doses of the tested compounds were administered intra-arterially (i.a.) into rats following the protocol described above in Example 17. Animal viability was monitored for 24 hours to evaluate lethal concentrations (LC). LC is defined as the minimal concentration that caused death.
Safety index is defined as the ratio between the lethal dose (LC) and the minimal effective concentration (MEC), wherein MEC corresponds to a calculated concentration of the tested compound that elicits accumulation of three times the amount of Evans blue accumulated in control animals treated with vehicle only, i.e. total accumulation of 3 μg EB. The higher the LC/MEC ratio is, the higher the safety index.

The test system of series [3] is blood brain barrier (BBB). Nature of the series: BBB permeabilization in rats, Evans blue extravasation into brain. The class given is in vivo, Sprague-Dawley rats. The conditions noted are these: for MEC: Table 8, sodium salt, in µM; for μg EB/g brain (at EC50): at EC50 (Mannitol at 25%); for MEC (minimal effective concentration): concentration giving 3 μg EB/g brain.

Series [4] deals with Normal bone marrow (BM) cells. Nature of the series: MTT cytotoxicity, normal bone marrow cells. The class given is cell-based, mouse. As to conditions: five days, read-out: EC50 (50% reduction in cell viability). The procedure:
The cytotoxic activity of various phospho-derivatives of branched-chain fatty acids (DP-BFAs) was assayed in vitro in cell cultures that include normal and malignant cell types. The following cell systems were used: • Primary fibroblasts (human) • Normal bone marrow (BM) cells (mouse) • Primary bronchial epithelial cells (human, from Clonetics, cat. no. CC-2541) • Caco-2—colon cancer cell line (human, ATTC, HTB-37) • C6 glioma cell line (rat, ATCC, CRL-2199) • Neuro2a—neuroblastoma cell line (mouse, ATCC, CCL-131) • SKBR-3—breast cancer cell line (human, ATTC, HTB-30) • HL60—myeloid leukemia cell line (human, ATCC, CCL-240) • U937—myeloid leukemia cell line (human)
Cells were seeded in a microtiter plate in MEM containing 2 mM L-glutamine, 100 units/ml penicillin, 100 ug/ml streptomycin and 10% FCS at 37° C. The cultured cells were incubated, during their linear growth phase in the absence (control group) or presence of various DP-BFAs as indicated. The final concentrations of the tested DP-BFAs ranged from 1.5 to 200 microMolars. At the end of the incubation period, which was five days for the bone marrow cells and three days for all the other cell lines, the cytotoxic effect of the added P-BFA on the cells was estimated by using the colorimetric MTT assay. The MTT assay (Mosmann (1983) J. Immunol Methods 65: 55–63) measures mitochondrial reductase activity and serves for quantitative assessment of cellular viability. Drug concentration that causes 50% reduction in cell viability in comparison to the control group, is defined as EC50. The EC50 values of the tested DP-BFA compounds were calculated from dose response curves established for each of the different assayed cell lines.
Each EC50 value is an average of EC50 values derived from 1–5 independent experiments.

Where [5] appears, read: Table 6, rat brains, Evans blue extravasation, read-out: EQ50 (the source's name).
Where [6] appears, read: Mus musculus, Bone marrow cell, 120 h.

“2-(4′-Hexadecanoyloxy)ethoxyethyl phosphate [3,12-DEG-PO4]”: the “Ratio F-Na/EB (mean of individual ratios)” value (“Ratio F-Na/EB” below) in series [1] is reported as “around 9”. The “LC (minimal concentration that caused death)” value in series [2] was 30 ± 5 µM. Besides, the MEC in series [3] turned out to be 3.0 ± 0.5.

Turning to `CCCCCCCCCCCCC(CCC)C(=O)OCCOCCOP(=O)([O-])OCC[N+](C)(C)C` (stereo not drawn) [3,12-DEG-PC, 2-(2′-Propyltetradecanoyloxy)ethoxyethylphosphocholine], in series [1], the “% EB/g brain” value is 0.6 ± 0.1%, the “Brain fluorescein uptake (% of serum F-Na level)” value is given as 2.9 ± 0.5 % of the F—Na level in the ser and the “Ratio F-Na/EB” value came out at 6.8 ± 0.8. Moreover, in series [2], the “LC (minimal concentration that caused death)” value stood at 300 ± 60 µM and the “Safety LC/MEC” value is 20. Besides, in series [3] (Table 6), the “μg EB/g brain (at EC50)” value is given as 14 ± 2 μg EB/g brain and the “MEC (minimal effective concentration)” value was 15 ± 2 µM. Moreover, in series [3] (setting [5]), the EC50 worked out at 70 ± 12 µM. The MEC in series [3] is reported as 15 ± 2. Further, in series [4] (setting [6]), the EC50 was found to be 166 µM.

As to `CCCCCCCCCCCCC(CCC)C(=O)OCCOCCOP(=O)([O-])[O-].[Na+].[Na+]` (stereo not drawn) [3,12-DEG-PO4Na2, 2-[2′-(2″-Propyltetradecanoyloxy)-ethoxy]ethyl Disodium Phosphate], in series [1], the “% EB/g brain” value is recorded as 1.4 ± 0.2%, the “Brain fluorescein uptake (% of serum F-Na level)” value is recorded as 9.0 ± 1.4 % of the F—Na level in the ser and the “Ratio F-Na/EB” value amounted to 9.0 ± 1.2. Besides, in series [3] (Table 6), the “μg EB/g brain (at EC50)” value was 18 μg EB/g brain and 18 ± 3 μg EB/g brain; the “MEC (minimal effective concentration)” value was 3.3 µM and 3.3 ± 0.5 µM. Moreover, in series [3] (setting [5]), the EC50 was found to be 20 µM. In addition, the EC50 in series [4] is 62 µM.

Regarding `CCCCCCCCCCCCC(CCC)C(=O)OCCOP(=O)([O-])OCC[N+](C)(C)C` (stereo not drawn) [3,12-MEG-PC, 2-(2′-Propyltetradecanoyloxy)ethylphosphocholine], in series [1], the “% EB/g brain” value stood at 0.9 ± 0.2%, the “Brain fluorescein uptake (% of serum F-Na level)” value was 5.2 ± 0.8 % of the F—Na level in the ser and the “Ratio F-Na/EB” value is recorded as 6.9 ± 0.1. Moreover, in series [2], the “LC (minimal concentration that caused death)” value came out at 15 ± 2 µM and the “Safety LC/MEC” value turned out to be 1.5. Further, in series [3] (Table 6), the “μg EB/g brain (at EC50)” value stood at 15 ± 2 μg EB/g brain and the “MEC (minimal effective concentration)” value came out at 10 ± 1 µM. For the same molecule, in series [3] (setting [5]), the EC50 was 19.5 ± 1.5 µM. In addition, the MEC in series [3] worked out at 10 ± 1. Further, the EC50 in series [4] (setting [6]) was 95 µM.

Consider `CCCCCCCCCCCCC(CCC)C(=O)[O-].[Na+]` (stereo not drawn) [3,12-Na, reference compound], for which, in series [1], the “% EB/g brain” value was 1.8 ± 0.2%; the “Brain fluorescein uptake (% of serum F-Na level)” value is on record as 6.4 ± 1.1 % of the F—Na level in the ser; the “Ratio F-Na/EB” value is 4.9 and 4.9 ± 0.9. Besides, in series [2], the “LC (minimal concentration that caused death)” value worked out at 40 ± 10 µM and the “Safety LC/MEC” value is given as 6.1. In addition, in series [3] (Evans blue extravasation in rat brain, 3,n-type BFAs), the “permeabilization of the BBB (FIG. 1, in words)” value is listed as “active”. The “MEC (minimal effective concentration)” value in series [3] (Table 5) worked out at 6.5 ± 0.7. For the same molecule, the EC50 in series [3] (Table 5, rat brain, intracarotid infusion, read-out: EC50 (Evans Blue extravasation)) stood at 20 ± 3 µM. For the same molecule, the MEC in series [3] is 6.5 ± 0.7.

`CCCCCCCCCCCCC(CCC)OP(=O)([O-])OCC[N+](C)(C)C` (stereo not drawn) [3,12-PC, 4-Hexadecanyl phosphocholine]: in series [1], the “% EB/g brain” value worked out at 0.8 ± 0.1%, the “Brain fluorescein uptake (% of serum F-Na level)” value was 3.0 ± 0.5 % of the F—Na level in the ser and the “Ratio F-Na/EB” value was 7.8 ± 1.3. For the same molecule, in series [2], the “LC (minimal concentration that caused death)” value came out at 80 ± 16 µM and the “Safety LC/MEC” value is 3.5. In series [3] (Table 6), the “μg EB/g brain (at EC50)” value is listed as 10 ± 1 μg EB/g brain and the “MEC (minimal effective concentration)” value was found to be 23 ± 4 µM. The EC50 in series [3] (setting [5]) stood at 76 ± 14 µM. Further, the MEC in series [3] was 23 ± 4.
